Active and inactive are the calls of the source.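 Rule for the calls: active = cell killing, with a fitted active concentration at or below twice the top valid dose tested; inconclusive = flat partial cell loss, or a poor curve fit; inactive = effect in the rising direction, plus the rest.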
Tested on: not listed separately
Assay: cytotoxicity in A549 cells, dose response, cytotoxicity control, cell-based, CellTiter-Glo luminescence, dry powder (AID 743483)
Conditions: A549 viability, CellTiter-Glo ATP luminescence, 72 h; at 12 µM (top of the series)

| SMILES | activity change, negative = cytotoxicity |
| --- | --- |
| C[C@H](CO)N1C[C@H](C)[C@H](CN(C)C(=O)Nc2ccc(F)cc2)OCCCC[C@H](C)Oc2ccc(NC(=O)C3CCCC3)cc2C1=O | 12.9% (inactive) |
| C[C@H](CO)N1C[C@H](C)[C@H](CN(C)C(=O)Nc2ccccc2)OCCCC[C@H](C)Oc2ccc(NC(=O)CCC(F)(F)F)cc2C1=O | 12.7% (inactive) |

Same assay, conditions: A549 viability, CellTiter-Glo ATP luminescence, 72 h; at 26 µM (top of the series)

| SMILES | activity change, negative = cytotoxicity |
| --- | --- |
| C[C@@H]1CCCCO[C@@H](CN(C)C(=O)Nc2cccc3ccccc23)[C@H](C)CN([C@H](C)CO)C(=O)c2cc(NC(=O)C3CCCCC3)ccc2O1 | -11.3% (inactive) |
| C[C@H]1CCCCO[C@@H](CN(C)C(=O)Nc2ccc(F)cc2)[C@@H](C)CN([C@@H](C)CO)C(=O)c2cc(NC(=O)C3CCCCC3)ccc2O1 | -21.4% (inactive) |
| C[C@H](CO)N1C[C@H](C)[C@H](CN(C)C(=O)Nc2ccccc2)OCCCC[C@H](C)Oc2ccc(NC(=O)NC3CCCCC3)cc2C1=O | -4.06% (inactive) |
| C[C@H](CO)N1C[C@H](C)[C@H](CN(C)C(=O)Nc2cccc(F)c2)OCCCC[C@H](C)Oc2ccc(NC(=O)C3CCCCC3)cc2C1=O | -12.5% (inactive) |
| C[C@H](CO)N1C[C@H](C)[C@H](CN(C)C(=O)Nc2ccc(F)cc2)OCCCC[C@H](C)Oc2ccc(NC(=O)Nc3ccc(F)cc3)cc2C1=O | -13.3% (inactive) |
| C[C@H](CO)N1C[C@H](C)[C@@H](CN(C)C(=O)Nc2cccc3ccccc23)OCCCC[C@H](C)Oc2ccc(NC(=O)C3CCCCC3)cc2C1=O | -15.8% (inactive) |
| Cc1ccc(NC(=O)N(C)C[C@@H]2OCCCC[C@H](C)Oc3ccc(NC(=O)C4CCCCC4)cc3C(=O)N([C@H](C)CO)C[C@@H]2C)cc1 | -2.73% (inactive) |
| C[C@H](CO)N1C[C@H](C)[C@H](CN(C)C(=O)Nc2ccc(F)cc2)OCCCC[C@H](C)Oc2ccc(NC(=O)NC3CCCCC3)cc2C1=O | -3.88% (inactive) |
| C[C@H](CO)N1C[C@H](C)[C@H](CN(C)C(=O)Nc2ccc3ccccc3c2)OCCCC[C@H](C)Oc2ccc(NC(=O)C3CCCCC3)cc2C1=O | 2.71% (inactive) |
| C[C@H](CO)N1C[C@H](C)[C@H](CN(C)C(=O)Nc2ccccc2F)OCCCC[C@H](C)Oc2ccc(NC(=O)C3CCCCC3)cc2C1=O | -18.7% (inactive) |
| C[C@H]1CCCCO[C@@H](CN(C)C(=O)Nc2ccc3c(c2)OCO3)[C@@H](C)CN([C@@H](C)CO)C(=O)c2cc(NC(=O)NC3CCCCC3)ccc2O1 | -15% (inactive) |
| C[C@H](CO)N1C[C@H](C)[C@H](CN(C)C(=O)Nc2ccc(F)cc2)OCCCC[C@H](C)Oc2ccc(NC(=O)C3CCCCCC3)cc2C1=O | -13.4% (inactive) |
| C[C@H](CO)N1C[C@H](C)[C@H](CN(C)C(=O)Nc2cccc3ccccc23)OCCCC[C@H](C)Oc2ccc(NC(=O)C3CCCCC3)cc2C1=O | -19% (inactive) |
| C[C@@H]1CCCCO[C@@H](CN(C)C(=O)Nc2cccc3ccccc23)[C@H](C)CN([C@@H](C)CO)C(=O)c2cc(NC(=O)C3CCCCC3)ccc2O1 | -18.7% (inactive) |
| CC(=O)Nc1ccc2c(c1)C(=O)N([C@H](C)CO)C[C@H](C)[C@H](CN(C)C(=O)Nc1ccc(F)cc1)OCCCC[C@H](C)O2 | -6.53% (inactive) |
| C[C@H](CO)N1C[C@H](C)[C@H](CN(C)C(=O)Nc2ccc(F)cc2)OCCCC[C@H](C)Oc2ccc(NC(=O)C3CCC3)cc2C1=O | -1.54% (inactive) |
| C[C@H](CO)N1C[C@H](C)[C@H](CN(C)C(=O)Nc2ccc(F)cc2)OCCCC[C@H](C)Oc2ccc(NC(=O)C3CCOCC3)cc2C1=O | 4.42% (inactive) |
| C[C@H](CO)N1C[C@H](C)[C@H](CN(C)C(=O)Nc2ccc(F)cc2)OCCCC[C@H](C)Oc2ccc(NC(=O)Nc3ccccc3)cc2C1=O | -4.11% (inactive) |
| C[C@H](CO)N1C[C@H](C)[C@H](CN(C)C(=O)Nc2cccc3ccccc23)OCCCC[C@H](C)Oc2ccc(NC(=O)c3ccccc3)cc2C1=O | -18.3% (inactive) |

| SMILES | activity change, negative = cytotoxicity |
| --- | --- |
| COc1ccc(NC(=O)N(C)C[C@@H]2OCCCC[C@H](C)Oc3ccc(NC(=O)NC4CCCCC4)cc3C(=O)N([C@H](C)CO)C[C@@H]2C)cc1 | 3.04% (inactive) |
| C[C@@H]1CCCCO[C@@H](CN(C)C(=O)Nc2cccc3ccccc23)[C@@H](C)CN([C@H](C)CO)C(=O)c2cc(NC(=O)C3CCCCC3)ccc2O1 | -24.4% (inactive) |
| C[C@H](CO)N1C[C@H](C)[C@H](CN(C)C(=O)Nc2ccc(F)cc2)OCCCC[C@H](C)Oc2ccc(NC(=O)C3CC3)cc2C1=O | 2.37% (inactive) |
| C[C@H](CO)N1C[C@H](C)[C@H](CN(C)C(=O)Nc2ccc3c(c2)OCO3)OCCCC[C@H](C)Oc2ccc(NC(=O)NC3CCCCC3)cc2C1=O | -4.36% (inactive) |
| C[C@@H]1CCCCO[C@H](CN(C)C(=O)Nc2cccc3ccccc23)[C@H](C)CN([C@H](C)CO)C(=O)c2cc(NC(=O)C3CCCCC3)ccc2O1 | -21.8% (inactive) |
| C[C@H](CO)N1C[C@H](C)[C@H](CN(C)C(=O)Nc2ccccc2)OCCCC[C@H](C)Oc2ccc(NC(=O)C3CCCCC3)cc2C1=O | -8.81% (inactive) |
| C[C@H](CO)N1C[C@H](C)[C@H](CN(C)C(=O)Nc2cccc3ccccc23)OCCCC[C@H](C)Oc2ccc(NC(=O)NC3CCCCC3)cc2C1=O | -18.8% (inactive) |
| C[C@H](CO)N1C[C@H](C)[C@H](CN(C)C(=O)Nc2ccc(F)cc2)OCCCC[C@H](C)Oc2ccc(NC(=O)C3CCCCC3)cc2C1=O | -8.92% (inactive) |
| C[C@H](CO)N1C[C@H](C)[C@H](CN(C)C(=O)Nc2ccc(C(F)(F)F)cc2)OCCCC[C@H](C)Oc2ccc(NC(=O)NC3CCCCC3)cc2C1=O | -9.21% (inactive) |
| C[C@H]1CCCCO[C@@H](CN(C)C(=O)Nc2ccccc2)[C@@H](C)CN([C@@H](C)CO)C(=O)c2cc(NC(=O)NC3CCCCC3)ccc2O1 | -3.65% (inactive) |
| C[C@@H]1CCCCO[C@H](CN(C)C(=O)Nc2cccc3ccccc23)[C@@H](C)CN([C@@H](C)CO)C(=O)c2cc(NC(=O)C3CCCCC3)ccc2O1 | -19.7% (inactive) |
| C[C@H](CO)N1C[C@H](C)[C@H](CN(C)C(=O)Nc2cccc3ccccc23)OCCCC[C@H](C)Oc2ccc(NC(=O)CCC(F)(F)F)cc2C1=O | -6.54% (inactive) |
| C[C@@H]1CN([C@@H](C)CO)C(=O)c2cc(NC(=O)C3CCCCC3)ccc2O[C@@H](C)CCCCO[C@@H]1CN(C)C(=O)Nc1cccc2ccccc12 | -22.9% (inactive) |
| COc1ccc(NC(=O)N(C)C[C@@H]2OCCCC[C@H](C)Oc3ccc(NC(=O)C4CCCCC4)cc3C(=O)N([C@H](C)CO)C[C@@H]2C)cc1 | -14.8% (inactive) |
| C[C@H](CO)N1C[C@H](C)[C@H](CN(C)C(=O)Nc2ccc3c(c2)OCO3)OCCCC[C@H](C)Oc2ccc(NC(=O)C3CCCCC3)cc2C1=O | -3.37% (inactive) |
| C[C@H](CO)N1C[C@H](C)[C@H](CN(C)C(=O)Nc2ccccc2)OCCCC[C@H](C)Oc2ccc(NC(=O)Nc3ccccc3)cc2C1=O | 3.79% (inactive) |
| C[C@H](CO)N1C[C@H](C)[C@H](CN(C)C(=O)Nc2ccccc2)OCCCC[C@H](C)Oc2ccc(NC(=O)Nc3ccc4c(c3)OCO4)cc2C1=O | -21.2% (inactive) |
| CC(C)(C)c1ccc(-c2nc(-c3ccncc3)no2)cc1 | -8.72% (inactive) |
| C[C@@H]1CCCCO[C@H](CN(C)C(=O)Nc2cccc3ccccc23)[C@H](C)CN([C@@H](C)CO)C(=O)c2cc(NC(=O)C3CCCCC3)ccc2O1 | -22.6% (inactive) |

Tested on: A549 viability, CellTiter-Glo ATP luminescence, 72 h
Assay: as above
Conditions: not given

| SMILES | IC50 |
| --- | --- |
| C[C@H]1CCCCO[C@@H](CN(C)S(=O)(=O)c2ccc(Cl)cc2)[C@@H](C)CN([C@@H](C)CO)C(=O)c2cc(NC(=O)NC3CCCCC3)ccc2O1 | 19.1 µM |
| C[C@@H]1CN([C@@H](C)CO)C(=O)c2cc(NC(=O)C3CCCCC3)ccc2O[C@@H](C)CCCCO[C@H]1CN(C)C(=O)Nc1cccc2ccccc12 | 6.41 µM |
| COc1ccc(S(=O)(=O)N(C)C[C@@H]2OCCCC[C@H](C)Oc3ccc(NS(=O)(=O)c4ccc(Cl)cc4)cc3C(=O)N([C@@H](C)CO)C[C@@H]2C)cc1 | 22.1 µM |
| C[C@@H]1CN([C@H](C)CO)C(=O)c2cc(NC(=O)C3CCCCC3)ccc2O[C@@H](C)CCCCO[C@H]1CN(C)C(=O)Nc1cccc2ccccc12 | 21.8 µM |

— PubChem BioAssay AID743483 (Broad Institute, 2014)
